# Data: US8211892B2, “Tetrahydroquinoxaline urea derivatives” (Sanofi-Aventis, priority 2008, dated 2012)
# pIC50: −log10 of the molar value.
# Key:
# [1] = biological target: T1, recombinant 11βHSD1 protein (Homo sapiens, UniProt P28845); test: SPA (Scintillation Proximity Assay) test of in vitro inhibition of the enzyme 11βHSD1, 384-well format; format: biochemical; details: 3H-cortisone and NADPH, SPA beads, cortisol formed; read-out: IC50 (concentration which inhibits 50% of the activity of 11βHSD1)
# T1 construct: made in house; host or cells: Saccharomyces cerevisiae
# T1 sequence (P28845 whole entry, species assumed): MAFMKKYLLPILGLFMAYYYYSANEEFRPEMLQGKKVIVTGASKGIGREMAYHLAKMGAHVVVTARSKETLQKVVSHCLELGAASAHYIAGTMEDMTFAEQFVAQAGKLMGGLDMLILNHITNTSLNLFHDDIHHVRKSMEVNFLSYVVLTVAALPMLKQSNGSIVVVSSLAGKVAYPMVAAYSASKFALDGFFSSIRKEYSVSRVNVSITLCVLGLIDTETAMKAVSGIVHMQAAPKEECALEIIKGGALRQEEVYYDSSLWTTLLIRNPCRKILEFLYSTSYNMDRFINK
# From the text: The compounds according to the invention formed the subject of pharmacological assays which make it possible to determine their inhibiting effect on the enzyme 11βHSD1, which is involved in the metabolism of lipids and the metabolism of glucose.
# These assays consisted in measuring the in vitro inhibiting activity of the compounds of the invention on the enzyme 11βHSD1 by virtue of an SPA (Scintillation Proximity Assay) test in 384-well format. The recombinant 11βHSD1 protein was produced in the yeast S. cerevisiae. The reaction was carried out by incubating the enzyme in the presence of ^3H-cortisone and of NADPH, in the absence or in the presence of an increasing concentration of inhibitor. SPA beads coupled to an antimouse antibody, which are preincubated with an anticortisol antibody, made it possible to measure the amount of cortisol formed during the reaction.
# [2] = biological target: T2, 11βHSD1 in the eyes (Homo sapiens, UniProt P28845); details: healthy volunteers, treatment for seven days; cited from earlier work
# T2 construct: The 11βHSD1 is located in the nonpigmented epithelial calls; host or cells: healthy volunteers (in vivo, ocular tissue)
# T2 sequence (P28845 whole entry): as the sequence (P28845 whole entry, species assumed) above
pIC50 [1],melting point,Structure (SMILES),reduction of the intraocular pressure (IOP) [2]
6.39,123 to 125 °C,"O=C(NC1C2CC3CC(C2)CC1C3)N1CCN(c2ccc(OCc3ncccn3)cc2)c2ccccc21 (centres unmarked) [Compound No. 3, 4-[4-(Pyrimidin-2-ylmethoxy)Phenyl]-3,4-dihydro-2H-quinoxaline-1-carboxylic Acid adamantan-2-ylamide]",
7.55,160 °C,"CS(=O)(=O)N1CCC(O)(c2ccc(N3CCN(C(=O)N[C@H]4C5CC6CC4C[C@@](O)(C6)C5)c4ccccc43)cc2)CC1 [Compound No. 16, Trans-4-[4-(4-Hydroxy-1-(methanesulphonyl)Piperidin-4-yl)Phenyl]-3,4-dihydro-2H-quinoxaline-1-carboxylic Acid (5-hydroxy-adamantan-2-yl)Amide]",
,160 °C,"CS(=O)(=O)N1CCN(c2ccc(N3CCN(C(=O)N[C@H]4C5CC6CC4C[C@@](CO)(C6)C5)c4ccccc43)cc2)CC1 [Compound No. 21, Trans-4-[4-(4-(Methanesulphonyl)Piperazin-1-yl)Phenyl]-3,4-dihydro-2H-quinoxaline-1-carboxylic Acid (5-(hydroxymethyl)Adamantan-2-yl)Amide]",
,165 to 200 °C,"CS(=O)(=O)N1CCN(c2ccc(N3CCN(C(=O)N[C@H]4C5CC6CC4C[C@@](F)(C6)C5)c4ccccc43)cc2)CC1 [Compound No. 40, Trans-4-[4-(4-(Methanesulphonyl)Piperazin-1-yl)Phenyl]-3,4-dihydro-2H-quinoxaline-1-carboxylic Acid (5-fluoroadamantan-2-yl)Amide]",
,131 °C,"O=C(N[C@H]1C2CC3CC1C[C@@](O)(C3)C2)N1CCN(c2ccc(N3CCC(O)CC3)cc2)c2ccccc21 [Compound No. 51, Trans-4-[4-(4-Hydroxypiperidin-1-yl)Phenyl]-3,4-dihydro-2H-quinoxaline-1-carboxylic Acid (5-hydroxyadamantan-2-yl)Amide]",
6.89,250 °C,"CC(=O)N[C@]12CC3CC(C1)[C@H](NC(=O)N1CCN(c4ccc(N5CCN(S(C)(=O)=O)CC5)cc4)c4ccccc41)C(C3)C2 [Compound No. 137, Trans-4-[4-(4-(Methanesulphonyl)Piperazin-1-yl)Phenyl]-3,4-dihydro-2H-quinoxaline-1-carboxylic Acid (5-acetylaminoadamantan-2-yl)Amide]",
,175 °C,"CCS(=O)(=O)N1CCN(c2ccc(N3CCN(C(=O)N[C@H]4C5CC6CC4C[C@@](C(N)=O)(C6)C5)c4ccccc43)nc2)CC1 [Compound No. 149, Trans-4-[5-(4-(Ethanesulphonyl)Piperazin-1-yl)Pyridin-2-yl]-3,4-dihydro-2H-quinoxaline-1-carboxylic Acid (5-carbamoyladamantan-2-yl)Amide]",
,,CC1(C)[C@@H](OC(=O)CCC(=O)O)CC[C@]2(C)[C@H]3C(=O)C=C4[C@@H]5C[C@@](C)(C(=O)O)CC[C@]5(C)CC[C@@]4(C)[C@]3(C)CC[C@@H]12 [carbenoxolone],18%
6.20,163 to 169 °C,O=C(c1ccc(-c2csc(N3CCN(C(=O)NC4C5CC6CC(C5)CC4C6)c4ccccc43)n2)cc1)N1CCOCC1 (centres unmarked) [compound 6],
7.55,197 °C,O=C(NC1C2CC3CC1CC(O)(C3)C2)N1CCN(c2ccc(Oc3nccc(C(F)(F)F)n3)cc2)c2ccccc21 (centres unmarked) [compound 14],
7.31,103 °C,CS(=O)(=O)N1CC=C(c2ccc(N3CCN(C(=O)NC4C5CC6CC4CC(O)(C6)C5)c4ccccc43)cc2)CC1 (centres unmarked) [compound 15],
7.77,127 °C,CC(C)N1CCN(C(=O)c2ccc(-c3ccc(N4CCN(C(=O)NC5C6CC7CC5CC(O)(C7)C6)c5ccccc54)cc3)nc2)CC1 (centres unmarked) [compound 27],
7.03,95 °C,O=C(NC1C2CC3CC1CC(O)(C3)C2)N1CCN(c2ccc(N3CCC(F)(F)CC3)cc2)c2ccccc21 (centres unmarked) [compound 30],
,138 to 160 °C,"CCS(=O)(=O)N1CCN(c2ccc(N3CCN(C(=O)N[C@H]4C5CC6CC4C[C@@](O)(C6)C5)c4ccccc43)cc2)CC1 [compound 34, trans-4-[4-(4-(Ethanesulphonyl)Piperazin-1-yl)Phenyl]-3,4-dihydro-2H-quinoxaline-1-carboxylic Acid (5-hydroxyadamantan-2-yl)Amide]",
8.15,193 to 194 °C,CC(C)Oc1ccc(-c2ccc(N3CCN(C(=O)NC4C5CC6CC4CC(C(N)=O)(C6)C5)c4ccccc43)cc2)nc1 (centres unmarked) [compound 85],
8.10,230 °C,NC(=O)C12CC3CC(C1)C(NC(=O)N1CCN(c4ccc(N5CCN(S(=O)(=O)C6CCNCC6)CC5)cc4)c4ccccc41)C(C3)C2 (centres unmarked) [compound 95],
7.72,228 °C,CC(C)(C)N1CCN(c2ccc(N3CCN(C(=O)NC4C5CC6CC4CC(C(N)=O)(C6)C5)c4ccccc43)cc2)CC1 (centres unmarked) [compound 96],
8.10,161 °C,O=C(NC1C2CC3CC1CC(O)(C3)C2)N1CCN(c2ccc(N3CCN(C4CC4)CC3)cn2)c2ccccc21 (centres unmarked) [compound 118],
8.15,188 °C,O=C(NC1C2CC3CC1CC(O)(C3)C2)N1CCN(c2ccc(N3CCN(S(=O)(=O)C4CCC4)CC3)cn2)c2ccccc21 (centres unmarked) [compound 119],
8.15,,COCCOCCS(=O)(=O)N1CCN(c2ccc(N3CCN(C(=O)NC4C5CC6CC4CC(C(N)=O)(C6)C5)c4ccccc43)cc2)CC1 (centres unmarked) [compound 125],
8.40,,CC(C)(C)N1CCN(c2ccc(N3CCN(C(=O)NC4C5CC6CC4CC(C(N)=O)(C6)C5)c4ccccc43)nc2)CC1 (centres unmarked) [compound 128],
6.73,127 °C,CS(=O)(=O)N1CCC2(CCN(c3ccc(N4CCN(C(=O)NC5C6CC7CC5CC(O)(C7)C6)c5ccccc54)cc3)C2)C1 (centres unmarked) [compound 132],
,194 to 200 °C,"CC(C)(CO)N1CCN(c2ccc(N3CCN(C(=O)N[C@H]4C5CC6CC4C[C@@](C(N)=O)(C6)C5)c4ccccc43)cc2)CC1 [compound 152, Trans-4-{4-[4-(2-Hydroxy-1,1-dimethylethyl)Piperazin-1-yl]phenyl}-3,4-dihydro-2H-quinoxaline-1-carboxylic Acid (5-carbamoyladamantan-2-yl)Amide]",
,209 °C,"CC(C)CN1CCN(c2ccc(N3CCN(C(=O)N[C@H]4C5CC6CC4C[C@@](C(N)=O)(C6)C5)c4ccccc43)nc2)CC1 [compound 158, Trans-4-[5-(4-Isobutylpiperazin-1-yl)Pyridin-2-yl]-3,4-dihydro-2H-quinoxaline-1-carboxylic Acid (5-carbamoyladamantan-2-yl)Amide]",
,188 °C,"N#C[C@]12CC3CC(C1)[C@H](NC(=O)N1CCN(c4ccc(N5CCN(S(=O)(=O)C6CC6)CC5)cn4)c4ccccc41)C(C3)C2 [compound 165, Trans-4-[5-(4-(Cyclopropanesulphonyl)Piperazin-1-yl)Pyridin-2-yl]-3,4-dihydro-2H-quinoxaline-1-carboxylic Acid (5-cyanoadamantan-2-yl)Amide]",
,228 °C,"CC(C)(C)N1CCC(c2ccc(N3CCN(C(=O)N[C@H]4C5CC6CC4C[C@@](C(N)=O)(C6)C5)c4ccccc43)nc2)CC1 [compound 170, Trans-4-(1′-(tert-Butyl)-1′,2′,3′,4′,5′,6′-hexahydro-[3,4′]bipyridinyl-6-yl)-3,4-dihydro-2H-quinoxaline-1-carboxylic Acid (5-carbamoyladamantan-2-yl)Amide]",
,204 °C,"CS(=O)(=O)CCN1CCN(c2ccc(N3CCN(C(=O)N[C@H]4C5CC6CC4C[C@@](C(N)=O)(C6)C5)c4ccccc43)nc2)CC1 [compound 178, Trans-4-{5-[4-(2-(Methanesulphonyl)Ethyl)Piperazin-1-yl]-pyridin-2-yl}-3,4-dihydro-2H-quinoxaline-1-carboxylic Acid (5-carbamoyladamantan-2-yl)Amide]",
